# Legend:
# [1] = retention time on BEH HILIC column (20 min gradient, 0.4 mL/min); higher = later elution; conditions: LC: HILIC
# Procedure: (§1)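 Reference standards (20-100 uM) were separated by HILIC UPLC (BEH HILIC, 45 °C): acidic pH 3.0 ammonium formate/formic acid for ESI+ and basic pH 9.0 ammonium acetate/ammonia for ESI-. They were analysed on a Synapt G2-Si traveling-wave IMS-QTOF with nitrogen drift gas (WH 30 V; WV 800 m/s in ESI+ and 1000 m/s in ESI-).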
# [2] = collision cross section (TWIMS, N2) of ion [M-H]-; higher = larger gas-phase ion cross section; conditions: ionization: ESI negative; LC: HILIC, pH 9.0 ammonium acetate
# Procedure: as §1
# [3] = collision cross section (TWIMS, N2) of ion [M+H]+; higher = larger gas-phase ion cross section; conditions: ionization: ESI positive; LC: HILIC, pH 3.0 ammonium formate
# Procedure: as §1
# [4] = ionization: ESI negative, pH 9.0 ammonium acetate
# [5] = ionization: ESI positive, pH 3.0 ammonium formate
compound,measurement,setting,value
NCCc1c[nH]c2ccc(O)cc12 [Serotonin],retention time on BEH HILIC column,[1]; [4],3.73 min
same,collision cross section,[2],137.88 Å²
Nc1ncnc2c1ncn2[C@@H]1O[C@H](CO)[C@@H](O)[C@H]1O [Adenosine],retention time on BEH HILIC column,[1]; [4],2.36 min
same,retention time on BEH HILIC column,[1]; [5],2.24 min
same,collision cross section,[2],155.95 Å²
same,collision cross section,[3],155.89 Å²
C[C@@H](O)[C@H](N)C(=O)O [L-threonine],retention time on BEH HILIC column,[1]; [4],7.5 min
same,collision cross section,[2],121.54 Å²
CCC(CO)C(=O)O (centres undefined) [2-ethylhydracrylic acid],retention time on BEH HILIC column,[1]; [4],1.03 min
same,collision cross section,[2],123.21 Å²
Nc1ncnc2c1ncn2[C@@H]1O[C@H](COP(=O)(O)O)[C@@H](O)[C@H]1O [AMP],retention time on BEH HILIC column,[1]; [4],12 min
same,retention time on BEH HILIC column,[1]; [5],9.15 min
same,collision cross section,[2],175.53 Å²
same,collision cross section,[3],167.89 Å²
N[C@@H](CCC(=O)N[C@@H](CS)C(=O)NCC(=O)O)C(=O)O [Glutathione],retention time on BEH HILIC column,[1]; [4],9.37 min
same,retention time on BEH HILIC column,[1]; [5],9.46 min
same,collision cross section,[2],166.5 Å²
same,collision cross section,[3],166.01 Å²
C=C1CC[C@H](O)C/C1=C/C=C1\CCC[C@]2(C)[C@@H]([C@H](C)CCCC(C)C)CC[C@@H]12 [Vitamin D3],retention time on BEH HILIC column,[1]; [4],17.5 min
same,retention time on BEH HILIC column,[1]; [5],0.73 min
same,collision cross section,[2],201.16 Å²
same,collision cross section,[3],206.18 Å²
CCCCCCC(=O)OC [Methyl heptanoate],retention time on BEH HILIC column,[1]; [4],1.13 min
same,retention time on BEH HILIC column,[1]; [5],0.84 min
same,collision cross section,[2],137.2 Å²
same,collision cross section,[3],137.86 Å²
N[C@@H](CCSC[C@H](N)C(=O)O)C(=O)O [L-cystathionine],retention time on BEH HILIC column,[1]; [4],11.2 min
same,retention time on BEH HILIC column,[1]; [5],11.3 min
same,collision cross section,[2],142.48 Å²
same,collision cross section,[3],144 Å²
C[C@H](O)C(=O)O [Lactic acid],retention time on BEH HILIC column,[1]; [4],2.86 min
same,collision cross section,[2],116.91 Å²
O=C(O)CCC(=O)C(=O)O [a-ketoglutaric acid],retention time on BEH HILIC column,[1]; [4],5.51 min
same,collision cross section,[2],122.3 Å²
CCCCCCCCC(=O)OC [Methyl nonanoate],retention time on BEH HILIC column,[1]; [4],1.03 min
same,retention time on BEH HILIC column,[1]; [5],1.03 min
same,collision cross section,[2],144.8 Å²
same,collision cross section,[3],148.93 Å²
NCCCC[C@H](N)C(=O)O [L-lysine],retention time on BEH HILIC column,[1]; [4],11.6 min
same,retention time on BEH HILIC column,[1]; [5],11.3 min
same,collision cross section,[2],135.63 Å²
same,collision cross section,[3],131.69 Å²
N[C@@H](Cc1cnc[nH]1)C(=O)O [L-histidine],retention time on BEH HILIC column,[1]; [4],12.7 min
same,retention time on BEH HILIC column,[1]; [5],12.6 min
same,collision cross section,[2],129.28 Å²
same,collision cross section,[3],131.08 Å²
Cc1cc2nc3c(=O)[nH]c(=O)nc-3n(C[C@H](O)[C@H](O)[C@H](O)COP(=O)(O)OP(=O)(O)OC[C@H]3O[C@@H](n4cnc5c(N)ncnc54)[C@H](O)[C@@H]3O)c2cc1C [FAD],retention time on BEH HILIC column,[1]; [4],10.6 min
same,retention time on BEH HILIC column,[1]; [5],10.5 min
same,collision cross section,[2],243.71 Å²
same,collision cross section,[3],250.07 Å²
CC[C@H](C)C(=O)C(=O)O [3-methyl-2-oxopentanoic acid],retention time on BEH HILIC column,[1]; [4],1.93 min
same,collision cross section,[2],126.71 Å²
O=C(O)CC(O)(CC(=O)O)C(=O)O [Citric acid],retention time on BEH HILIC column,[1]; [4],11.1 min
same,collision cross section,[2],128.76 Å²
O=P(O)(O)O[C@H]1O[C@H](CO)[C@H](O)[C@H](O)[C@H]1O [Galactose 1-phosphate],retention time on BEH HILIC column,[1]; [4],11.8 min
same,collision cross section,[2],147.62 Å²
O=P(O)(O)OC[C@H]1O[C@H](O)[C@H](O)[C@@H]1O [D-ribose 5-phosphate],retention time on BEH HILIC column,[1]; [4],9.22 min
same,collision cross section,[2],139.6 Å²
CC/C=C\C/C=C\C/C=C\C/C=C\C/C=C\CCCC(=O)O [Eicosapentaenoic acid],retention time on BEH HILIC column,[1]; [4],0.72 min
same,retention time on BEH HILIC column,[1]; [5],0.75 min
same,collision cross section,[2],190.11 Å²
same,collision cross section,[3],177.23 Å²
Nc1ncnc2c1ncn2[C@@H]1O[C@H](COP(=O)(O)OP(=O)(O)OP(=O)(O)O)[C@@H](O)[C@H]1O [ATP],retention time on BEH HILIC column,[1]; [4],12.3 min
same,collision cross section,[2],190.77 Å²
CC(=O)SCCNC(=O)CCNC(=O)[C@H](O)C(C)(C)COP(=O)(O)OP(=O)(O)OC[C@H]1O[C@@H](n2cnc3c(N)ncnc32)[C@H](O)[C@@H]1OP(=O)(O)O [Acetyl-CoA],retention time on BEH HILIC column,[1]; [4],11.8 min
same,retention time on BEH HILIC column,[1]; [5],12 min
same,collision cross section,[2],256.25 Å²
same,collision cross section,[3],248.16 Å²
C[C@H](N)C(=O)O [L-alanine],retention time on BEH HILIC column,[1]; [4],7.42 min
same,collision cross section,[2],117.06 Å²
NCCCCNCCCN [Spermidine],retention time on BEH HILIC column,[1]; [5],12.7 min
same,collision cross section,[3],135.15 Å²
O=C(O)CCC(=O)O [Succinic acid],retention time on BEH HILIC column,[1]; [4],1.5 min
same,collision cross section,[2],118.44 Å²
CC(C)C(=O)O [Isobutyric acid],retention time on BEH HILIC column,[1]; [4],3.29 min
same,collision cross section,[2],118.84 Å²
O=C(O)[C@H]1O[C@H](OP(=O)(O)OP(=O)(O)OC[C@H]2O[C@@H](n3ccc(=O)[nH]c3=O)[C@H](O)[C@@H]2O)[C@H](O)[C@@H](O)[C@@H]1O [UDPGA],retention time on BEH HILIC column,[1]; [4],10.4 min
same,collision cross section,[2],209.99 Å²
C[C@@H](CC(=O)O)C(=O)O [Methylsuccinic acid],retention time on BEH HILIC column,[1]; [4],1.28 min
same,collision cross section,[2],121.94 Å²
"O=C(O)C(O)CCO (centres undefined) [2,4-dihydroxybutyric acid]",retention time on BEH HILIC column,[1]; [4],4.91 min
same,collision cross section,[2],119.85 Å²
CCCCC(=O)O [Valeric acid],retention time on BEH HILIC column,[1]; [4],3.22 min
same,collision cross section,[2],123.48 Å²
CC[C@H](N)C(=O)O [2-aminobutyric acid],retention time on BEH HILIC column,[1]; [4],7.05 min
same,collision cross section,[2],121.74 Å²
CC(C)CC(=O)O [Isovaleric acid],retention time on BEH HILIC column,[1]; [4],0.9 min
same,collision cross section,[2],123.48 Å²
C[N+](C)(C)C[C@H](O)CC(=O)O [L-carnitine],retention time on BEH HILIC column,[1]; [5],8.64 min
same,collision cross section,[3],137.38 Å²
CCCCC(C)C(=O)O (centres undefined) [2-methylhexanoic acid],retention time on BEH HILIC column,[1]; [4],0.8 min
same,collision cross section,[2],134.11 Å²
N[C@@H](CCC(=O)O)C(=O)O [L-glutamic acid],retention time on BEH HILIC column,[1]; [4],8.21 min
same,collision cross section,[2],125.39 Å²
CCC(C)(O)C(=O)O (centres undefined) [2-hydroxy-2-methyl butyric acid],retention time on BEH HILIC column,[1]; [4],1.55 min
same,collision cross section,[2],124.78 Å²
N[C@@H](CC(=O)O)C(=O)O [L-aspartic acid],retention time on BEH HILIC column,[1]; [4],11.5 min
same,collision cross section,[2],120.3 Å²
CCCCCCCC(=O)O [Caprylic acid],retention time on BEH HILIC column,[1]; [4],0.77 min
same,collision cross section,[2],141.36 Å²
NC(=O)c1cccnc1 [Niacinamide],retention time on BEH HILIC column,[1]; [5],1.21 min
same,collision cross section,[3],123.01 Å²
N[C@@H]1[C@@H](O)[C@H](O)[C@@H](COP(=O)(O)O)O[C@@H]1O [Glucosamine 6-phosphate],retention time on BEH HILIC column,[1]; [4],12.3 min
same,collision cross section,[2],150.31 Å²
CC(=O)N[C@H]1[C@@H](OP(=O)(O)OP(=O)(O)OC[C@H]2O[C@@H](n3ccc(=O)[nH]c3=O)[C@H](O)[C@@H]2O)O[C@H](CO)[C@@H](O)[C@@H]1O [UDPAG],retention time on BEH HILIC column,[1]; [4],9.42 min
same,collision cross section,[2],219.62 Å²
CC(O)C(C)C(=O)O (centres undefined) [3-hydroxy-2-methylbutanoic acid],retention time on BEH HILIC column,[1]; [4],1.1 min
same,collision cross section,[2],124.78 Å²
O=C(O)C[C@H](O)C(=O)O [Malic acid],retention time on BEH HILIC column,[1]; [4],13 min
same,collision cross section,[2],118.53 Å²
NC(=O)C[C@H](N)C(=O)O [L-asparagine],retention time on BEH HILIC column,[1]; [4],8.32 min
same,collision cross section,[2],123.48 Å²
CCCCCCCCCCCCCC(=O)O [Myristic acid],retention time on BEH HILIC column,[1]; [4],0.73 min
same,collision cross section,[2],168.91 Å²
Nc1ncnc2c1ncn2[C@@H]1O[C@H](COP(=O)(O)OP(=O)(O)O)[C@@H](O)[C@H]1O [ADP],retention time on BEH HILIC column,[1]; [4],12.6 min
same,collision cross section,[2],183.67 Å²
CCCC(=O)O [Butyric acid],retention time on BEH HILIC column,[1]; [4],3.72 min
same,collision cross section,[2],122.31 Å²
CC(C)CC(=O)C(=O)O [Ketoleucine],retention time on BEH HILIC column,[1]; [4],1.93 min
same,collision cross section,[2],128.21 Å²
"O=P(O)(O)OC[C@H]1O[C@](O)(COP(=O)(O)O)[C@@H](O)[C@@H]1O [Fructose 1,6-bisphosphate]",retention time on BEH HILIC column,[1]; [4],12.9 min
same,collision cross section,[2],159.01 Å²
N[C@@H](CO)C(=O)O [L-serine],retention time on BEH HILIC column,[1]; [4],7.75 min
same,collision cross section,[2],118.21 Å²
NCCCNCCCCNCCCN [Spermine],retention time on BEH HILIC column,[1]; [5],13.9 min
same,collision cross section,[3],150.86 Å²
C[C@@H](O)CC(=O)O [3-hydroxybutyric acid],retention time on BEH HILIC column,[1]; [4],0.97 min
same,collision cross section,[2],107.41 Å²
O=P(O)(O)OC[C@H]1O[C@@](O)(CO)[C@@H](O)[C@H](O)[C@@H]1O [D-sedoheptulose 7-phosphate],retention time on BEH HILIC column,[1]; [4],9.82 min
same,collision cross section,[2],150.55 Å²
O=P(O)(O)O[C@H]1O[C@H](CO)[C@@H](O)[C@H](O)[C@H]1O [Glucose 1-phosphate],retention time on BEH HILIC column,[1]; [4],9.95 min
same,collision cross section,[2],147.62 Å²
CC[C@H](O)C(=O)O [2-hydroxybutyric acid],retention time on BEH HILIC column,[1]; [4],1.95 min
same,collision cross section,[2],119.98 Å²

# Reference: the supplement of paper PMC11127212
